According to patent US8772500B2, “TRPV3 modulators” (AbbVie Inc., priority 2011, dated 2014):

Tests used:
human TRPV3 = biological target: T1, human TRPV3 (Homo sapiens, UniProt Q8NET8); assay: In vitro antagonism of recombinant human TRPV3 activation (FLIPR Tetra calcium assay, 2-APB as agonist); assay type: cell-based; conditions: HEK293 cells stably expressing human TRPV3; 2-APB 80 μM; range class; read-out: IC50 (reported range)
T1 construct: expressed in transfected cells
T1 sequence (Q8NET8 1-790): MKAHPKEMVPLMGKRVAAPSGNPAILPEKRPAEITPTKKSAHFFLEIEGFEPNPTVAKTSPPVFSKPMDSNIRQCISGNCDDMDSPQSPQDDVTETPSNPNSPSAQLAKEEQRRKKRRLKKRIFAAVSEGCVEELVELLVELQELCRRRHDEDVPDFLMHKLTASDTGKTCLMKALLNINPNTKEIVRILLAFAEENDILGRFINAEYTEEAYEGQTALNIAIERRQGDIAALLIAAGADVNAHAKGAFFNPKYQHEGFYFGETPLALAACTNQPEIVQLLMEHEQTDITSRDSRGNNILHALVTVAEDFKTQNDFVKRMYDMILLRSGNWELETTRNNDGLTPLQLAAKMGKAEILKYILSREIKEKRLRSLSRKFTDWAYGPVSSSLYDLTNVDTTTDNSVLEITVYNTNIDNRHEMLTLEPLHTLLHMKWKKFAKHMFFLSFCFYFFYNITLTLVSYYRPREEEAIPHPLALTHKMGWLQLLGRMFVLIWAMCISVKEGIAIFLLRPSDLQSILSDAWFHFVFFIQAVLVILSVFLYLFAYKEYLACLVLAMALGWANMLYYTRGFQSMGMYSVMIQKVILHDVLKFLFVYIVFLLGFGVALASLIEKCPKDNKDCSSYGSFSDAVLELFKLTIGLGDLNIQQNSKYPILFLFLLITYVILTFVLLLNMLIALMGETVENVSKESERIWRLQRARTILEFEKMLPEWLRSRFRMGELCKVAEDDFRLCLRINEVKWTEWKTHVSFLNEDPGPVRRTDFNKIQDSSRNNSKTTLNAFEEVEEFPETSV
Method: Test compounds were evaluated for ability to antagonize the activation of recombinant human TRPV3 using FLIPR® Tetra cellular screening. Specifically, on the day prior to the experiment recombinant HEK293 cells that stably express human TRPV3 were removed from tissue culture flasks and plated in growth medium at 20,000 cells/well into Poly-d-lysine coated black/clear 384-well Plate (Corning, 3845) using a Multidrop® dispenser (ThermoScientific, Waltham, Mass.). Prior to the start of the assay, the medium was removed by aspiration, and cells were loaded with 30 μL no-wash FLIPR® Calcium-4 dye (λEX=470-495 nm, λEM=515-575 nm; Molecular Devices, Sunnyvale, Calif.). The cells were then incubated for 90-120 minutes in the dark prior to addition of the test compound.
A double-addition protocol was used. The test compound (i.e., the TRPV3 antagonist) was added at the 10 second time point, followed by the addition of a TRPV3 agonist three minutes later. Each test compound evaluated was first dissolved in DMSO to prepare a 10 mM stock solution. A solution (5×) of the test compound was then prepared in DPBS (Dulbecco's Phosphate Buffered Saline) and 10 μL of that solution was added to the cells at a delivery rate of 40 μL/sec. The TRPV3 agonist used to activate human TRPV3 expressed by the […] was 2-aminoethoxy-diphenyl borate (2-APB; Tocris Cookson, Ellisville, Mo.) at 80 μM. Final assay volume was 50 μL. Total length of an experimental run was 10 minutes.
Changes in fluorescence were measured over time using the FLIPR® instrument. The intensity of the fluorescence was captured and digitally transferred to an interfaced computer. The maximum response minus minimum response was calculated and expressed as the percentage of the maximum 2-APB response in the absence of antagonist. The concentration of 2-APB corresponds to its EC80.
Table 1 reports the IC50 values measured for the test compounds as human TRPV3 antagonists. […] Actual measured values are shown parenthetically after the reported range. In most cases, the values reported are average values from at least two runs (i.e., n≧2).

[1] = In vitro human microsomal stability assay; assay type: in vitro ADME; conditions: for HUMAN […] (% REMAINING AFTER 30 MINUTES): 0.5 μM substrate, 0.25 mg/mL microsomal protein, pH 7.4, 37° C., NADPH
In short: (§1)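 Stability readout reflects compound turnover by hepatic microsomes from Sprague-Dawley rats or from humans, according to the assay. Reactions at 37 °C contained NADPH, which was present in the zero-time plates as well.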

[2] = In vitro rat microsomal stability assay; assay type: in vitro ADME, rat (Sprague-Dawley); conditions: for RAT […] (% REMAINING AFTER 30 MINUTES): 0.5 μM substrate, 0.25 mg/mL microsomal protein, pH 7.4, 37° C., NADPH; for RAT MICROSOMAL STABILITY (% REMAINING AFTER 30 MINUTES): Sprague-Dawley, 0.5 h, 0.5 μM, pH 7.4
In short: as §1

IC50 (human TRPV3) [nM]	Compound	also measured
50 to 500	OC1CC(c2ccc(Cl)c(Cl)c2)(C(O)c2ccccn2)C1 (single isomer, unassigned) [Example 118]	HUMAN MICROSOMAL STABILITY (% REMAINING AFTER 30 MINUTES) ([1]; human, 0.5 h, 0.5 μM, pH 7.4): >85%; RAT MICROSOMAL STABILITY (% REMAINING AFTER 30 MINUTES) [2]: 74%
501 to 1000	CCN(CC)c1ccc(C2(C(O)c3ccccn3)CCC2)cc1 (centres unmarked) [Example 18, {1-[4-(diethylamino)phenyl]cyclobutyl}(pyridin-2-yl)methanol]	RAT MICROSOMAL STABILITY (% REMAINING AFTER 30 MINUTES) [2]: 0.27%
501 to 1000	OC(c1ncccn1)C1(c2cccc(OC(F)(F)F)c2)CCC1 (centres unmarked) [Example 37, pyrimidin-2-yl{1-[3-(trifluoromethoxy)phenyl]cyclobutyl}methanol]	RAT MICROSOMAL STABILITY (% REMAINING AFTER 30 MINUTES) [2]: 7.7%
50 to 500	OC(c1ncccn1)C1(c2ccc(Cl)c(Cl)c2)CCC1 (centres unmarked) [Example 38, [1-(3,4-dichlorophenyl)cyclobutyl](pyrimidin-2-yl)methanol]	RAT MICROSOMAL STABILITY (% REMAINING AFTER 30 MINUTES) [2]: 9.5%
> 20000	CC(c1cccc(C(F)(F)F)c1)C1(C(O)c2ccccn2)CCC1 (centres unmarked) [Example 54, pyridin-2-yl(1-{1-[3-(trifluoromethyl)phenyl]ethyl}cyclobutyl)methanol]	RAT MICROSOMAL STABILITY (% REMAINING AFTER 30 MINUTES) [2]: 0.21%
5100 to 20000	OC(c1ccccn1)C1(c2ccc(F)c(F)c2)CCOCC1 (centres unmarked) [Example 63, [4-(3,4-difluorophenyl)tetrahydro-2H-pyran-4-yl](pyridin-2-yl)methanol]	
1100 to 5000	OC(c1ccccn1)C1(c2ccc(Cl)cc2)CCOCC1 (centres unmarked) [Example 64, [4-(4-chlorophenyl)tetrahydro-2H-pyran-4-yl](pyridin-2-yl)methanol]	
1100 to 5000	OC(c1ccccn1)C1(c2ccc(C(F)(F)F)cc2)CCOCC1 (centres unmarked) [Example 65, pyridin-2-yl{4-[4-(trifluoromethyl)phenyl]tetrahydro-2H-pyran-4-yl}-methanol]	
1100 to 5000	OC(CC1(c2ccccc2)CCC1)c1ccccn1 (centres unmarked) [Example 68, 2-(1-phenylcyclobutyl)-1-(pyridin-2-yl)ethanol]	
1100 to 5000	OC(CC1(c2ccc(Cl)cc2)CCC1)c1ccccn1 (centres unmarked) [Example 69, 2-[1-(4-chlorophenyl)cyclobutyl]-1-(pyridin-2-yl)ethanol]	
5100 to 20000	OC(CC1(c2ccc(F)cc2)CCC1)c1ccccn1 (centres unmarked) [Example 70, 2-[1-(4-fluorophenyl)cyclobutyl]-1-(pyridin-2-yl)ethanol]	
1100 to 5000	OC(CC1(c2cccc(F)c2)CCC1)c1ccccn1 (centres unmarked) [Example 71, 2-[1-(3-fluorophenyl)cyclobutyl]-1-(pyridin-2-yl)ethanol]	
1100 to 5000	OC(CC1(c2cccc(Cl)c2)CCC1)c1ccccn1 (centres unmarked) [Example 72, 2-[1-(3-chlorophenyl)cyclobutyl]-1-(pyridin-2-yl)ethanol]	
1100 to 5000	OC(CC1(c2ccc(Cl)c(Cl)c2)CCC1)c1ccccn1 (centres unmarked) [Example 73, 2-[1-(3,4-dichlorophenyl)cyclobutyl]-1-(pyridin-2-yl)ethanol]	
1100 to 5000	OC(c1ccccn1)C1(c2ccc(C(F)(F)F)cc2)CCOC1 (centres unmarked) [Example 78, pyridin-2-yl{3-[4-(trifluoromethyl)phenyl]tetrahydrofuran-3-yl}methanol]	
1100 to 5000	OC(c1ccccn1)C1(c2cccc(OC(F)(F)F)c2)CCOC1 (centres unmarked) [Example 80, pyridin-2-yl{3-[3-(trifluoromethoxy)phenyl]tetrahydrofuran-3-yl}methanol]	
1100 to 5000	OC(c1ccccn1)C1(c2cccc(Cl)c2)COC1 (centres unmarked) [Example 86, [3-(3-chlorophenyl)oxetan-3-yl](pyridin-2-yl)methanol]	
1100 to 5000	NC1CCCCC1C(O)C1(c2ccc(C(F)(F)F)cc2)CCC1 (centres unmarked) [Example 207, (2-aminocyclohexyl){1-[4-(trifluoromethyl)phenyl]cyclobutyl}methanol]	
1100 to 5000	NC1CCCC1C(O)C1(c2cccc(OC(F)(F)F)c2)CCC1 (centres unmarked) [Example 208, (2-aminocyclopentyl){1-[3-(trifluoromethoxy)phenyl]cyclobutyl}methanol]	RAT MICROSOMAL STABILITY (% REMAINING AFTER 30 MINUTES) [2]: 36%
1100 to 5000	NC1CCCCC1C(O)C1(c2ccc(OC(F)(F)F)cc2)CCC1 (centres unmarked) [Example 209, (2-aminocyclohexyl){1-[4-(trifluoromethoxy)phenyl]cyclobutyl}methanol]	
1100 to 5000	NC1CCCCC1C(O)C1(c2cccc(OC(F)(F)F)c2)CCC1 (centres unmarked) [Example 210, (2-aminocyclohexyl){1-[3-(trifluoromethoxy)phenyl]cyclobutyl}methanol]	
5100 to 20000	NC1CCCCC1C(O)C1(c2ccc(Cl)c(Cl)c2)CCC1 (centres unmarked) [Example 211, (2-aminocyclohexyl) [1-(3,4-dichlorophenyl)cyclobutyl]methanol]	
1100 to 5000	NC1CCCC1C(O)C1(c2ccccc2OC(F)(F)F)CCC1 (centres unmarked) [Example 214, (2-aminocyclopentyl){1-[2-(trifluoromethoxy)phenyl]cyclobutyl}methanol]	
501 to 1000	NC1CCCC1C(O)C1(c2ccc(Cl)c(Cl)c2)CCC1 (centres unmarked) [Example 215, (2-aminocyclopentyl) [1-(3,4-dichlorophenyl)cyclobutyl]methanol]	
1100 to 5000	N[C@H]1CCC[C@H]1[C@@H](O)C1(c2ccc(Cl)c(Cl)c2)CCC1 [Example 218, (R)-[(1R,2S)-2-aminocyclopentyl][1-(3,4-dichlorophenyl)cyclobutyl]-methanol]	
1100 to 5000	N[C@H]1CCC[C@@H]1[C@H](O)C1(c2ccc(Cl)c(Cl)c2)CCC1 [Example 219, (S)-[(1S,2S)-2-aminocyclopentyl][1-(3,4-dichlorophenyl)cyclobutyl]-methanol]	
1100 to 5000	CC1(O)CC(c2cccc(OC(F)(F)F)c2)(C(O)c2ccccn2)C1 [Example 263, trans-3-[(S)-hydroxy(pyridin-2-yl)methyl]-1-methyl-3-[3-(trifluoromethoxy)-phenyl]cyclobutanol]	RAT MICROSOMAL STABILITY (% REMAINING AFTER 30 MINUTES) [2]: >85%
501 to 1000	CC1(O)CC(c2ccnc(C(F)(F)F)c2)(C(O)c2ccccn2)C1 [Example 302, cis-3-[(S)-hydroxy(pyridin-2-yl)methyl]-1-methyl-3-[2-(trifluoromethyl)-pyridin-4-yl]cyclobutanol]	

Compound	IC50 (human TRPV3) [nM]	also measured
O[C@H](c1ccccn1)[C@]1(c2cccc(C(F)(F)F)c2)C[C@H](O)C1 (relative stereo) [Example 259, cis-3-[(S)-hydroxy(pyridin-2-yl)methyl]-3-[3-(trifluoromethyl)phenyl]-cyclobutanol]	50 to 500	HUMAN […] (% REMAINING AFTER 30 MINUTES) [1]: 76%; RAT […] (% REMAINING AFTER 30 MINUTES) [2]: 73%
O[C@H](c1ccccn1)[C@]1(c2cccc(C(F)(F)F)c2)C[C@@H](O)C1 (relative stereo) [Example 264, trans-3-[(S)-hydroxy(pyridin-2-yl)methyl]-3-[3-(trifluoromethyl)phenyl]-cyclobutanol]	50 to 500	HUMAN […] (% REMAINING AFTER 30 MINUTES) [1]: 56%; RAT […] (% REMAINING AFTER 30 MINUTES) [2]: 59%
CC1(O)CC(c2cncc(C(F)(F)F)c2)([C@H](O)c2ccccn2)C1 (stereo in doubt) [Example 309, trans-3-[(S)-hydroxy(pyridin-2-yl)methyl]-1-methyl-3-[5-(trifluoromethyl)-pyridin-3-yl]cyclobutanol]	1100 to 5000	HUMAN […] (% REMAINING AFTER 30 MINUTES) [1]: >85%
